Patent US8026218B2, “Bifunctional analgesic compounds for opioid receptor agonists and neurokinin-1 receptor antagonists” (The University of Arizona, priority 2006, dated 2011)
Like-named read-outs stand apart in the source and are kept apart here. Peptide text beside a SMILES is read from it.

Experiments:
μ opioid receptors (GPI) = experiment: Guinea pig isolated ileum (GPI) assay, opioid agonist;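 further: inhibition of electrically evoked contractions (0.1 Hz, 0.4 msec, supramaximal voltage) in organ baths at 37 °C, contraction height 3 min after each cumulative dose versus the 1 min before dosing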
[1] = target: T1, human δ opioid receptors (hDOR) (Homo sapiens, UniProt P41143); experiment: [35S]GTP-γ-S binding assay, hDOR; format: biochemical; conditions: for EC50: read-out: GTP hDOR EC50
T1 construct: expressed in transfected cells; host or cells: HN9.10 neuroblastoma cell line, pCDNA3, neomycin-selected clones
T1 sequence (P41143 whole entry): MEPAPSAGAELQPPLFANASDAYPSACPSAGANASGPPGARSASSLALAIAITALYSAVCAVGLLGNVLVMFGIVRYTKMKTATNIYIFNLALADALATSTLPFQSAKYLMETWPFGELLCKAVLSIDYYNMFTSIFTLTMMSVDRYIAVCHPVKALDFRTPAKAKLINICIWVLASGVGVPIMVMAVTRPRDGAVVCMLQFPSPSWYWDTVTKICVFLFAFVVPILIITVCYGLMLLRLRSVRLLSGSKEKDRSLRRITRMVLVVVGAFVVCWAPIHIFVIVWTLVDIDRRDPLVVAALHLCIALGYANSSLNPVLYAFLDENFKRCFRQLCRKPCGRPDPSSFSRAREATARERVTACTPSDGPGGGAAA

[2] = target: T2, rat μ opioid receptors (rMOR) (Rattus norvegicus, UniProt P33535); experiment: biochemical; format: biochemical
T2 construct: expressed in transfected cells; host or cells: HN9.10 neuroblastoma cell line, pCDNA3, neomycin-selected clones
T2 sequence (P33535 whole entry): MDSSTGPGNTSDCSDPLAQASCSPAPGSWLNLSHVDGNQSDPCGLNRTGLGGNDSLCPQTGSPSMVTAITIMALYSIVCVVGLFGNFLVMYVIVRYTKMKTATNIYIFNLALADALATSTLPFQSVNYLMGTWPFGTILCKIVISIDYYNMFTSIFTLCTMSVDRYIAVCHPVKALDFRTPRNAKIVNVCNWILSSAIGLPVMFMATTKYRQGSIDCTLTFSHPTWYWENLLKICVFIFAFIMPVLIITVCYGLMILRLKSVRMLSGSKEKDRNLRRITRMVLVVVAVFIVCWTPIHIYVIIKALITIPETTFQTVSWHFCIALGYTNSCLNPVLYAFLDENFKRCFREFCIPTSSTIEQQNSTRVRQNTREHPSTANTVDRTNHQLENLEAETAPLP

δ opioid receptors (MVD) = target: T3, δ opioid receptors (MVD) (Mus musculus, UniProt P32300); experiment: Mouse isolated vas deferens (MVD) assay, opioid agonist
T3 construct: from tissue; host or cells: mouse (ICR) isolated vas deferens
T3 sequence (P32300 whole entry): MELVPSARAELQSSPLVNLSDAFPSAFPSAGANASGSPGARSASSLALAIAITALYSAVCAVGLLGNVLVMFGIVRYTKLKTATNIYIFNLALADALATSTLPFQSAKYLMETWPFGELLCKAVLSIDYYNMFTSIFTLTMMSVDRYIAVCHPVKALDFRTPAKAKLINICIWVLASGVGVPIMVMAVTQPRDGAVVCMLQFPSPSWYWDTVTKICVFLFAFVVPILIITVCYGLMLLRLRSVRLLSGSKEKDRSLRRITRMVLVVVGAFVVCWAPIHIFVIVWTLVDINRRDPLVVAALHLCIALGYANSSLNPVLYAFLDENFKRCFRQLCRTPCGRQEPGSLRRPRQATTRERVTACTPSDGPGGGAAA

[3] = target: T4, Substance P receptors (guinea pig NK1) (Cavia porcellus, UniProt P30547); experiment: Guinea pig isolated ileum (GPI) assay with substance P stimulation in presence of 1 μM naloxone
T4 construct: from tissue; host or cells: guinea pig (Hartley) ileum LMMP, 1 μM naloxone present
T4 sequence (P30547 whole entry): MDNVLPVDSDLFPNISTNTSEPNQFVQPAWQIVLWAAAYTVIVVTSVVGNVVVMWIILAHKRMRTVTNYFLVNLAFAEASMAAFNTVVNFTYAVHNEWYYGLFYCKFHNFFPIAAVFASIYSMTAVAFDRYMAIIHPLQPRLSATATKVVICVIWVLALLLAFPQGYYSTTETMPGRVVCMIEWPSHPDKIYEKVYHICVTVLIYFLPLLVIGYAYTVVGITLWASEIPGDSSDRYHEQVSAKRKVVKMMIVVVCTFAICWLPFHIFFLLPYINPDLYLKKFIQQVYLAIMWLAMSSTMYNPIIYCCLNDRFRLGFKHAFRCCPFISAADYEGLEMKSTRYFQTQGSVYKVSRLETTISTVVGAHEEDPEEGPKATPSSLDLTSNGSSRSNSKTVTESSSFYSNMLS

[4] = Table 35, read-out: GPI/LMMP μ-agonist IC50
[5] = Table 32, read-out: GTP hDOR EMax
[6] = Table 32, read-out: GTP rMOR EC50
[7] = Table 32, read-out: GTP rMOR EMax
[8] = GPI/LMMP SP antagonist Ke (nM), Table 35
[9] = Table 39, read-out: GTP binding hDOR Emax
[10] = Table 39, read-out: GTP binding rMOR Emax
[11] = Table 39, read-out: GPI/LMMP opioid(mu) agonist (IC50; nM)

## C[C@@H](NC(=O)[C@@H](N)Cc1ccc(O)cc1)C(=O)NCC(=O)N[C@@H](Cc1ccccc1)C(=O)NCC(=O)N[C@@H](Cc1c[nH]c2ccccc12)C(=O)OCc1cc(C(F)(F)F)cc(C(F)(F)F)c1 [NP30] (HELM PEPTIDE1{Y.[dA].G.F.G.W.[FC(F)(F)c1cc(CO[*:1])cc(C(F)(F)F)c1]}$$$$V2.0; N-terminus assumed)
μ opioid receptors (GPI); [4]
  IC50: 25.7 nM

## C[C@@H](NC(=O)[C@@H](N)Cc1ccc(O)cc1)C(=O)NCC(=O)N[C@@H](Cc1ccccc1)C(=O)NCCC(=O)N[C@@H](Cc1c[nH]c2ccccc12)C(=O)OCc1cc(C(F)(F)F)cc(C(F)(F)F)c1 [NP32] (HELM PEPTIDE1{Y.[dA].G.F.[bAla].W.[FC(F)(F)c1cc(CO[*:1])cc(C(F)(F)F)c1]}$$$$V2.0; N-terminus assumed)
μ opioid receptors (GPI); [4]
  IC50: 435 nM

## C[C@@H](NC(=O)[C@@H](N)Cc1ccc(O)cc1)C(=O)NCC(=O)N[C@@H](Cc1ccccc1)C(=O)N[C@@H](Cc1c[nH]c2ccccc12)C(=O)OCc1cc(C(F)(F)F)cc(C(F)(F)F)c1 [NP36] (HELM PEPTIDE1{Y.[dA].G.F.W.[FC(F)(F)c1cc(CO[*:1])cc(C(F)(F)F)c1]}$$$$V2.0; N-terminus assumed)
μ opioid receptors (GPI); Table 36, read-out: GPI μ-agonist IC50
  IC50: 523 nM

## CSCC[C@H](NC(=O)[C@H](Cc1ccccc1)NC(=O)CNC(=O)[C@@H](C)NC(=O)[C@@H](N)Cc1ccc(O)cc1)C(=O)N[C@@H](Cc1c[nH]c2ccccc12)C(=O)OCc1cc(C(F)(F)F)cc(C(F)(F)F)c1 [NP38] (HELM PEPTIDE1{Y.[dA].G.F.M.W.[FC(F)(F)c1cc(CO[*:1])cc(C(F)(F)F)c1]}$$$$V2.0; N-terminus assumed)
[1]; Table 32
  EC50: 1.1 nM
[1]; [5]
  Emax: 36%
μ opioid receptors (GPI); [4]
  IC50: 393 nM
[2]; [6]
  EC50: 0.8 nM
[2]; [7]
  Emax: 51%
δ opioid receptors (MVD)
  IC50: 9.07 nM
[3]; [8]
  Kb: 2 nM

## C[C@@H](NC(=O)[C@H](Cc1ccccc1)NC(=O)CNC(=O)[C@@H](C)NC(=O)[C@@H](N)Cc1ccc(O)cc1)C(=O)N[C@@H](Cc1c[nH]c2ccccc12)C(=O)OCc1cc(C(F)(F)F)cc(C(F)(F)F)c1 [NP40] (HELM PEPTIDE1{Y.[dA].G.F.[dA].W.[FC(F)(F)c1cc(CO[*:1])cc(C(F)(F)F)c1]}$$$$V2.0; N-terminus assumed)
[1]; Table 32
  EC50: 71.3 nM
[1]; [5]
  Emax: 89%
μ opioid receptors (GPI); [4]
  IC50: 528 nM
[2]; [6]
  EC50: 93.1 nM
[2]; [7]
  Emax: 19%
δ opioid receptors (MVD)
  IC50: 58 nM
[3]; [8]
  Kb: 608 nM

## C[C@@H](NC(=O)[C@@H](N)Cc1ccc(O)cc1)C(=O)NCC(=O)N[C@@H](Cc1ccc(Cl)cc1)C(=O)NCC(=O)N[C@@H](Cc1c[nH]c2ccccc12)C(=O)OCc1cc(C(F)(F)F)cc(C(F)(F)F)c1 [NP46] (HELM PEPTIDE1{Y.[dA].G.[O=C([C@H](Cc1ccc(Cl)cc1)N[*:1])[*:2]].G.W.[FC(F)(F)c1cc(CO[*:1])cc(C(F)(F)F)c1]}$$$$V2.0; N-terminus assumed)
μ opioid receptors (GPI); Table 37, read-out: GPI μ-agonist IC50
  IC50: 124 nM

## Cc1cc(O)cc(C)c1C[C@H](N)C(=O)N[C@H](C)C(=O)N[C@@H](Cc1c[nH]c2ccccc12)C(=O)OCc1cc(C(F)(F)F)cc(C(F)(F)F)c1 [NP48]
μ opioid receptors (GPI); Table 36, at 1 μM
  GPI μ-agonist, % at 1 μM: 20.4% at 1 μM
δ opioid receptors (MVD)
  IC50: 408 nM

## CC(C)C[C@H](NC(=O)[C@@H]1CCCN1C(=O)[C@H](Cc1ccccc1)NC(=O)[C@H](Cc1ccccc1)NC(=O)CNC(=O)[C@@H](C)NC(=O)[C@@H](N)Cc1ccc(O)cc1)C(=O)N[C@@H](Cc1c[nH]c2ccccc12)C(=O)NCc1cc(C(F)(F)F)cc(C(F)(F)F)c1 [TY015] (HELM PEPTIDE1{Y.[dA].G.F.F.P.L.W.[FC(F)(F)c1cc(CN[*:1])cc(C(F)(F)F)c1]}$$$$V2.0; N-terminus assumed)
[1]; [9]
  Emax: 142%
[2]; Table 39, read-out: GTP binding rMOR EC50
  EC50: 176 nM
[2]; [10]
  Emax: 64.4%

## CC(C)C[C@H](NC(=O)[C@@H]1CCCN1C(=O)[C@H](Cc1ccccc1)NC(=O)[C@H](Cc1ccccc1)NC(=O)CNC(=O)[C@@H](C)NC(=O)[C@@H](N)Cc1ccc(O)cc1)C(=O)N[C@@H](Cc1c[nH]c2ccccc12)C(=O)N(C)Cc1cc(C(F)(F)F)cc(C(F)(F)F)c1 [TY017] (HELM PEPTIDE1{Y.[dA].G.F.F.P.L.W.[CN(Cc1cc(C(F)(F)F)cc(C(F)(F)F)c1)[*:1]]}$$$$V2.0; N-terminus assumed)
[1]; [9]
  Emax: 125%
[2]; [10]
  Emax: 62.4%

## CSCC[C@H](NC(=O)[C@H](Cc1ccccc1)NC(=O)CNC(=O)[C@@H](C)NC(=O)[C@@H](N)Cc1ccc(O)cc1)C(=O)N[C@H](CC(C)C)C(=O)N[C@@H](CC(C)C)C(=O)N[C@@H](Cc1c[nH]c2ccccc12)C(=O)OCc1cc(C(F)(F)F)cc(C(F)(F)F)c1 [TY021] (HELM PEPTIDE1{Y.[dA].G.F.M.[dL].L.W.[FC(F)(F)c1cc(CO[*:1])cc(C(F)(F)F)c1]}$$$$V2.0)
[1]; [9]
  Emax: 41.1%
[2]; [10]
  Emax: 51.4%

## CSCC[C@H](NC(=O)[C@H](Cc1ccccc1)NC(=O)CNC(=O)[C@@H](C)NC(=O)[C@@H](N)Cc1ccc(O)cc1)C(=O)NC(C)(C)C(=O)N[C@@H](CC(C)C)C(=O)N[C@@H](Cc1c[nH]c2ccccc12)C(=O)OCc1cc(C(F)(F)F)cc(C(F)(F)F)c1 [TY022]
[2]; [10]
  Emax: 32%

## CSCC[C@H](NC(=O)[C@H](Cc1ccccc1)NC(=O)CNC(=O)[C@@H](C)NC(=O)[C@@H](N)Cc1ccc(O)cc1)C(=O)N1CCC[C@@H]1C(=O)N[C@@H](CC(C)C)C(=O)N[C@@H](Cc1c[nH]c2ccccc12)C(=O)OCc1cc(C(F)(F)F)cc(C(F)(F)F)c1 [TY024]
[1]; read-out: GTP binding hDOR Emax
  Emax: 21%
[2]; read-out: GTP binding rMOR Emax
  Emax: 28%

## CSCC[C@H](NC(=O)[C@H](Cc1ccccc1)NC(=O)CNC(=O)[C@@H](C)NC(=O)[C@@H](N)Cc1ccc(O)cc1)C(=O)N1CCC[C@H]1C(=O)N[C@@H](CC(C)C)C(=O)N[C@@H](Cc1c[nH]c2ccccc12)C(=O)N(C)Cc1cc(C(F)(F)F)cc(C(F)(F)F)c1 [TY028]
[1]; [9]
  Emax: 59%
μ opioid receptors (GPI); [11]
  IC50: 971 nM
[2]; [10]
  Emax: 52%
δ opioid receptors (MVD)
  IC50: 11.2 nM
[3]; GPI/LMMP SP antagonist (Ke; nM), Table 39
  Kb: 4.6 nM

## COc1cc(COC(=O)[C@H](Cc2c[nH]c3ccccc23)NC(=O)[C@H](CC(C)C)NC(=O)[C@@H]2CCCN2C(=O)[C@H](CCSC)NC(=O)[C@H](Cc2ccccc2)NC(=O)CNC(=O)[C@@H](C)NC(=O)[C@@H](N)Cc2ccc(O)cc2)cc(OC)c1 [TY030]
[1]; [9]
  Emax: 61%
μ opioid receptors (GPI); [11]
  IC50: 31 nM
[2]; [10]
  Emax: 59%

## CSCC[C@H](NC(=O)[C@H](Cc1ccccc1)NC(=O)CNC(=O)[C@@H](CS)NC(=O)[C@@H](N)Cc1ccc(O)cc1)C(=O)N1CCC[C@H]1C(=O)N[C@@H](CC(C)C)C(=O)N[C@@H](Cc1c[nH]c2ccccc12)C(=O)OCc1cc(C(F)(F)F)cc(C(F)(F)F)c1 [TY031] (HELM PEPTIDE1{Y.[dC].G.F.M.P.L.W.[FC(F)(F)c1cc(CO[*:1])cc(C(F)(F)F)c1]}$$$$V2.0; N-terminus assumed)
δ opioid receptors (MVD)
  IC50: 235 nM

## CCCC[C@H](NC(=O)[C@H](Cc1ccccc1)NC(=O)CNC(=O)[C@@H](C)NC(=O)[C@@H](N)Cc1c(C)cc(O)cc1C)C(=O)N1CCC[C@H]1C(=O)N[C@@H](CC(C)C)C(=O)N[C@@H](Cc1c[nH]c2ccccc12)C(=O)NCc1cc(C(F)(F)F)cc(C(F)(F)F)c1 [TY050]
[2]; [10]
  Emax: 45%

## CSCC[C@H](N)C(=O)N1CCC[C@H]1C(=O)N[C@@H](CC(C)C)C(=O)N[C@@H](Cc1c[nH]c2ccccc12)C(=O)NCc1cc(C(F)(F)F)cc(C(F)(F)F)c1 [TY051] (HELM PEPTIDE1{M.P.L.W.[FC(F)(F)c1cc(CN[*:1])cc(C(F)(F)F)c1]}$$$$V2.0; N-terminus assumed)
[2]; Table 39
  GTP binding rMOR EC50: no response
